Assay results: PMC11674141, “Antimicrobial activity and synergistic effect of phage-encoded antimicrobial peptides with colistin and outer membrane permeabilizing agents against Acinetobacter baumannii” (PeerJ, 2024)
Converted amounts (≈) assume the structure as drawn. Read-outs that look alike come from different tables or passages of the source. Where no end group is shown, it is not given here.

Tests used:
A. baumannii ATCC19606 [1] = system: A. baumannii ATCC19606
A. baumannii ATCC19606 [2] = assay: microbe, parasite or virus in culture; conditions: Acinetobacter baumannii, ATCC19606, read-out: MIC alone
Pseudomonas aeruginosa = conditions: P. aeruginosa, sensitive
HepG2 cell line = assay: MTT cell viability assay; type: cell-based, human; conditions: 24 h, three independent experiments
Description: We aimed to determine the effects of peptides on cell viability and proliferation in the human hepatocellular carcinoma HepG2 cell line. The MTT assay was performed as described by [Muangpat et al. (2022)] with some modifications. The cells were cultured in Dulbecco’s Modified Eagle Medium (DMEM; Sigma-Aldrich, St. Louis, MO, USA), supplemented with 10% fetal bovine serum (FBS), 100 U/ml penicillin, and 100 μg/ml streptomycin at 37 °C in 5% CO^2 and 95% humidity. The cells were seeded into a 96-well plate at a density of 1 × 10^4 cells/well and allowed to adhere overnight. Then, the cells were exposed for 24 h to various concentrations of peptides. The control cells were cultured in complete DMEM medium containing 0.2% DMSO. After the 24-h incubation period, 20 μL of MTT solution (5 mg/mL in PBS) (Tokyo Chemical Industry Co., Ltd., Tokyo, Japan) was added to each well and incubated for another 2 h at 37 °C. The culture medium was then removed, and formazan crystals formed by viable cells were dissolved in 100 μL of DMSO before measuring the absorbance at 590 nm using a microplate spectrophotometer. The effect of the peptide on cell viability was calculated as a percentage of the control, which was arbitrarily assigned a value of 100% viability. The percentage of cell viability was calculated relative to the control group. The IC₅₀ of the peptides was defined as the concentration that caused a 50% reduction in cell viability compared with the control. The MTT assay was conducted in three independent experiments, each with triplicate wells per condition.

Escherichia coli = conditions: E. coli, sensitive
Bacillus subtilis = conditions: B. subtilis, sensitive
Staphylococcus aureus = conditions: S. aureus, sensitive
[3] = system: twenty biofilm-forming A. baumannii strains; assay: Inhibition of biofilm formation (crystal violet); type: cell-based, Acinetobacter baumannii; design: Percent biofilm forming inhibition: concentration or dose not given beside the values
Description: We determined the ability of peptides to inhibit biofilm formation in twenty biofilm-forming strains using the method described by [Karyne et al. (2020)] with some modifications. Briefly, biofilm-forming strains of A. baumannii were adjusted to an equivalent of the 0.5 McFarland standard in 2× Luria Bertani (LB) broth supplemented with 20% glucose. Then, 50 µL of A. baumannii and 50 µL of peptides were added. […] The plates were incubated overnight at 37 °C. After 24 h of incubation, the culture medium was gently removed, and the wells were washed three times with phosphate-buffered saline. The adherent cells were fixed with absolute methanol for 10 min, stained with 0.4% crystal violet for 15 min, and washed three times with sterile distilled water, then air-dried. The plates were then filled with 250 µL of 33% acetic acid for 15 min. The absorbance at OD595 nm was determined. All experiments were performed in three independent assays, each repeated in triplicate, and the percentage of biofilm reduction was calculated based on treated wells vs. non-treated wells.

A. baumannii ATCC19606 [4] = system: A. baumannii ATCC19606; remark: listed apart in the source
Klebsiella pneumoniae = conditions: K. pneumoniae, sensitive
[5] = A. baumannii 19,606, microdilution, MHB, 37 °C overnight, triplicate samples

Compound: LNSKDYAGAAAQFLVWNKGRVKGKL [PE02-1]
- MIC (ATCC19606) (A. baumannii ATCC19606 [1]; ATCC19606): > 2500 µg/mL
- MIC values (A. baumannii ATCC19606 [1]; ATCC19606): >2,500 ug/ml

Compound: O=C(O)CC(O)(CC(=O)O)C(=O)O [Citric acid, reference compound]
- MIC values of outer membrane permeabilizers and colistin (A. baumannii ATCC19606 [1]; A. baumannii 19606, microdilution, triplicate samples): 5000 µg/mL
- MIC (A. baumannii ATCC19606 [2]): 5000 µg/mL (≈ 26 mM)

Compound: LIAIQIAIKGMLNGWFTGVGFRRKR [PE04-1]
- Minimum Inhibitory Concentration (MIC) (Pseudomonas aeruginosa): 2500 µg/mL
- IC50 (reduction of viable cells to 50%) (HepG2 cell line): 1,440 ug/ml
- Minimum Inhibitory Concentration (MIC) (Escherichia coli): 2500 µg/mL
- Minimum Inhibitory Concentration (MIC) (Bacillus subtilis): 39.06 µg/mL
- Minimum Inhibitory Concentration (MIC) (MDR-AB, XDR-AB; strain AB003, MDR-AB): 312.5 µg/mL
- Minimum Inhibitory Concentration (MIC) (MDR-AB, XDR-AB; strain AB183, XDR-AB): 156.25 µg/mL
- Minimum Inhibitory Concentration (MIC) (MDR-AB, XDR-AB; strain AB329, XDR-AB): 625 µg/mL
- Minimum Inhibitory Concentration (MIC) (MDR-AB, XDR-AB; strain CR89, MDR-AB): 312.5 µg/mL
- Minimum Inhibitory Concentration (MIC) (Staphylococcus aureus): 39.06 µg/mL
- Percent biofilm forming inhibition ([3]; strain AB23, MDR-AB / CR-AB, 2013): 92.1075%
- Percent biofilm forming inhibition ([3]; strain CR65-47, MDR-AB / CR-AB, 2022): 61.4919%
- average percent inhibition of biofilm formation ([3]; twenty A. baumannii strains, peptide at MIC (312.5, 156.25, 156.25 µg/mL), 24 h, crystal violet OD595): 58.11%
- Minimum Inhibitory Concentration (MIC) (A. baumannii ATCC19606 [1]; A. baumannii 19606, sensitive): 312.5 µg/mL
- MIC values (A. baumannii ATCC19606 [1]; [5]): 312.5 µg/mL
- MIC (ATCC19606) (A. baumannii ATCC19606 [1]; A. baumannii ATCC19606): 312.5 µg/mL
- FIC index, peptide plus colistin (A. baumannii ATCC19606 [4]; ATCC19606): 0.19
- Minimum Inhibitory Concentration (MIC) (Klebsiella pneumoniae): 2500 µg/mL

Compound: LIAIQIAIKGMLNGWFTGVGFRRKR-NH2 [PE04-1-NH2]
- MIC alone (A. baumannii ATCC19606 [4]; ATCC19606, checkerboard, agent alone): 156.25 µg/mL

Compound: CC[C@H](C)[C@H](NC(=O)[C@H](CCCNC(=N)N)NC(=O)[C@H](CC(N)=O)NC(=O)[C@@H](N)CCCCN)C(=O)N[C@H](C(=O)NCC(=O)N1CCC[C@H]1C(=O)N[C@H](C(=O)N[C@@H](Cc1ccc(O)cc1)C(=O)N[C@@H](C)C(=O)N[C@@H](CCCCN)C(=O)N[C@@H](CS)C(=O)N[C@@H](CC(N)=O)C(=O)N[C@@H](CCCNC(=N)N)C(=O)N[C@@H](CO)C(=O)N[C@@H](CCCNC(=N)N)C(=O)N[C@@H](CCC(N)=O)C(=O)N[C@@H](CCSC)C(=O)N[C@@H](C)C(=O)N[C@@H](CC(C)C)C(=O)N[C@@H](CCC(=O)O)C(=O)N[C@@H](CC(N)=O)C(=O)N[C@@H](CCSC)C(=O)N[C@@H](C)C(=O)N[C@@H](Cc1ccccc1)C(=O)O)C(C)C)[C@@H](C)CC [PTL02]
- MIC values (A. baumannii ATCC19606 [1]; [5]): 5,000 ug/ml
- MIC (ATCC19606) (A. baumannii ATCC19606 [1]; A. baumannii ATCC19606): 5000 µg/mL (≈ 1.72 mM)

Compound: EYRSSWTGAYGASVLNKYIGMGRNS [PSTF02]
- MIC (ATCC19606) (A. baumannii ATCC19606 [1]; ATCC19606): > 5000 µg/mL
- MIC values (A. baumannii ATCC19606 [1]; ATCC19606): >5,000 ug/ml
